Results as given in publication PMC4368485 (Neuron, 2015).

Columns and labels:
latency to fall = assay: Rotorod test; type: in vivo, mouse; conditions: mice, vehicle 140±13 sec
[1] = estimated from the literature ref Yang et al., 2003, Nicholson et al., 2007; cited from earlier work
[2] = biological target: rat GluN1-1a/GluN2B receptors (Rattus norvegicus, UniProt P35439+Q00960); conditions: Table S6 ref Mott et al., 1998; cited from earlier work
[3] = system: horizontal locomotor activity; assay: Locomotor activity; type: in vivo, rat; conditions: at high doses IP; rats; cumulative 2 hr

Sequence of rat GluN1-1a/GluN2B receptors (Q00960 27-1482, other chains not shown): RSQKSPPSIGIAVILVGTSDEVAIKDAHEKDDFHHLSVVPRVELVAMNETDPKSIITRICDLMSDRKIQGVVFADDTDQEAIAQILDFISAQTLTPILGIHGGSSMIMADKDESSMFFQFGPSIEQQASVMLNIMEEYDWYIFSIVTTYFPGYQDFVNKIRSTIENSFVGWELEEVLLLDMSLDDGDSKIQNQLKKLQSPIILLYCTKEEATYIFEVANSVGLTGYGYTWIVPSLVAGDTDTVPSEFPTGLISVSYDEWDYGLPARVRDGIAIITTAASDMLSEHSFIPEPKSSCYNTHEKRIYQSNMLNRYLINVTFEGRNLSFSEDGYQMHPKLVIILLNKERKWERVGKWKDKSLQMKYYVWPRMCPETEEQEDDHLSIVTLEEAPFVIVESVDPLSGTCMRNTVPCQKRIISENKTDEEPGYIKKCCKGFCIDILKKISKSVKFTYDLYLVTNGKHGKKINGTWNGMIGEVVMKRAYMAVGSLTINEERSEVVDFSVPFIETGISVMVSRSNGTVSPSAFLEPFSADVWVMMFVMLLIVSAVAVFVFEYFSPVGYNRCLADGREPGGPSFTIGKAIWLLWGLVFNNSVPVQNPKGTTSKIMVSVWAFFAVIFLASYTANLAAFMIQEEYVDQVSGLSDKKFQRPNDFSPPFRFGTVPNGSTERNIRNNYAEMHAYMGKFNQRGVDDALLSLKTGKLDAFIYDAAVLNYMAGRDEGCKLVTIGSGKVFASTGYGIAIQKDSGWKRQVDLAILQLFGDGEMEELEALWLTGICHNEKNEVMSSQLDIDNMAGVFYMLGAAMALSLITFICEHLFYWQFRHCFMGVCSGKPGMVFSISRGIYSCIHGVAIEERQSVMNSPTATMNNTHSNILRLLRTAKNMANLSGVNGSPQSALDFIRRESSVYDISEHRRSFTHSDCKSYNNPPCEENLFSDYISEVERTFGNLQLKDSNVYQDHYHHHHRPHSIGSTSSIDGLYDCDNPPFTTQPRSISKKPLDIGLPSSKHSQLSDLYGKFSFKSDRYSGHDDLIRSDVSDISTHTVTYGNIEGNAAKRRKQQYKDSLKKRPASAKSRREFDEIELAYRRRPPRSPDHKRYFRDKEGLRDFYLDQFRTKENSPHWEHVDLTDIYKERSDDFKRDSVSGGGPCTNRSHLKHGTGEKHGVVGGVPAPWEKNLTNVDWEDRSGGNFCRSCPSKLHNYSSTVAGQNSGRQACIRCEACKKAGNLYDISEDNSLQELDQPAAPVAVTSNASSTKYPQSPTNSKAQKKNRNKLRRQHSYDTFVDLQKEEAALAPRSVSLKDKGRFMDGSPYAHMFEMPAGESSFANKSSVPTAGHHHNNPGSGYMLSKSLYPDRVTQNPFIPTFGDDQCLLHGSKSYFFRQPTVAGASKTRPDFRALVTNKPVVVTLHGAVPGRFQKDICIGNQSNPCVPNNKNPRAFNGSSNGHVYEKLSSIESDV

(+)MK-801
rotorod latency to fall (latency to fall; 0.6 mg/kg IP): 3 ± 2 s

C[C@@H]([C@@H](O)c1ccc(O)cc1)N1CCC(O)(c2ccccc2)CC1 [CP-101,606]
therapeutic ratio (TR) for neuroprotection [1]: ~ 4 | pH sensitivity of inhibition [2]: lack substantial pH sensitivity

CC(C(O)c1ccc(O)cc1)N1CCC(Cc2ccccc2)CC1 (centres unmarked) [ifenprodil]
rotorod latency to fall (latency to fall; 30 mg/kg IP): 35 ± 6 s | effect on locomotor activity [3]: reduced
